Measurements: US10092620B2, “Uses of cyclic peptides for treating and preventing atherosclerosis” (THE SCRIPPS RESEARCH INSTITUTE, priority 2013, dated 2018)
Entries after “also recorded” stand apart in the source; their conditions may differ. Non-standard residues stand in square brackets, D forms with d. dNMeW = CN[C@H](Cc1c[nH]c2ccccc12)C(=O)O; dNMeE = CN[C@H](CCC(=O)O)C(=O)O

Key:
[1] = system: plasma HDL; experiment: in vivo plasma HDL remodeling after intraperitoneal injection (Western blotting for mouse apoA-I); conditions: male mice (n=3), i.p. 18-24 mg/kg; FIG. 9
Method: To ascertain if the cyclic D,L-α-peptides function in vivo as modulators of HDL, we administered 1 to mice (BALB/c, n=3) via intraperitoneal injection (i.p.) at a dose of 20 mg/kg. After various times, blood was drawn and the plasma was analyzed by Western blotting to determine the levels of the HDL subpopulations.
In vivo plasma remodeling: Cyclic peptide c[wLwReQeR], 1, was dissolved in 10% sucrose, and sterile filtered through a 0.22-μm syringe filter before injection. Mice were fasted beginning 12 h before dosing, and continued the fast until after the 8-h time point blood draw was completed. Groups of three mice received a 20 mg/kg dose of the cyclic peptide via intraperitoneal injection (0.3 mL). Blood was drawn (30-60 μL) from the retro-orbital sinus into a heparinized capillary tube before dosing (0 min) and at different intervals from 30 min to 8 h after dosing. Plasma was isolated immediately from the whole blood by centrifugation at 5000 rpm for 10 min at 4° C., after which 10 μL of plasma were mixed with 90 μL of 50% sucrose, vortexed for 30 s, and stored at 4° C. until all time points had been collected (samples were stored from 0-8 h). Samples were then mixed with 20 μL of 6× native loading buffer (125 mM tris, pH 6.8, 0.02% bromophenol, 20% glycerol). 6 μL of these samples were loaded onto a 4-20% polyacrylamide gel. Gels were run at constant 80 V at 4° C. for 14 h using a Laemli buffer system (25 mM tris, 192 mM glycine, pH 8.3). Gels were then blotted onto nitrocellulose membranes (0.45 μm, Bio-Rad) at constant 30 V at 4° C. for 2 h using the Laemli buffer (no methanol). The membrane was blocked with 5% non-fat dry milk (NFDM) in TBST (20 mM tris, 150 mM NaCl, pH 7.6, 0.1% Tween-20) for 1 h at 23° C., and then washed once for 10 min with TBST. […]
In vivo plasma HDL remodeling activities of some of the peptides were also analyzed. […] Results shown in the figure were determined by Western blotting for mouse apoA-I.

[2] = system: HDL in human plasma; experiment: pre-beta HDL ELISA assay: remodeling HDL in human plasma in vitro; type: biochemical
Method: First, various cyclic peptides, including the majority of compounds shown in FIG. 2, were assessed for activities for remodeling HDL in human plasma in vitro. Unlike western blot which was used to generate data shown in FIG. 2, here a pre-beta HDL ELISA assay was used to measure pre-beta HDL levels. Results from the assay are shown in Table 1, which lists the peptides in the order of their activities in remodeling HDL.

[3] = system: LDLr-null mice; experiment: in vivo efficacy study: plasma total cholesterol in high-fat-fed LDLr-null mice; parameters: species or system mouse; conditions: oral 35 mg/kg in drinking water, two weeks, female LDLr-null mice, high-fat diet; FIG. 7
From the text: Encouraged by the above findings, we carried out a 2-week pilot study to determine the effect of 1 on plasma total cholesterol levels. As an animal model, we employed the LDLr-null mouse, which has a human-like lipoprotein profile and is a leading animal model for studying hypercholesterolemia and atherogenesis. Considering that the abiotic nature of cyclic D,L-α-peptides renders them highly resistant to proteolysis, we chose to conduct this pilot in vivo efficacy study via the more convenient oral route of administration. Thus, the cyclic D,L-α-peptide was administered orally in the drinking water for two weeks (each mouse drank ˜0.5 mg peptide per day, or ˜25 mg/kg/day) to mice maintained on a high-fat diet.
(§1) In vivo efficacy study: LDL receptor-null (LDLr^−/−) mice on a C57BL/6J background were initially purchased from Jackson Laboratories (Bar Harbor, Me.) and were bred in house. The mice were weaned at 4 weeks of age and were fed ad libitum a standard chow diet (Harlan Teklad 7019) until they were 10-weeks old, when they were switched to a high-fat Western diet (WD) containing 15.8% (wt/wt) fat, 1.25% (wt/wt) cholesterol, and no cholate (Harlan Teklad 94059). At the time that the WD was started, the test cyclic peptide was added to the drinking water at a high dose of 180 μM (200 μg/mL) or a low dose of 18 μM (20 μg/mL) and the mice (female, n=8 per dosing group) were continued on WD for 10 weeks. The lyophilized peptide was easily dissolved in PBS (pH 7.4) containing 1% sucrose, resulting in a clear solution. The drinking water solution was replaced with fresh solution every day. A control group of eight mice (female, n=8) were fed WD with vehicle (PBS with 1% sucrose) drinking water. The mice consumed approximately 2.5 mL of water per day per mouse, and there was no significant difference in water or food consumption between groups.
Effect of cyclic peptides on plasma total cholesterol: The mice were bled after two weeks of treatment and at the time of harvest (10 weeks). The blood (200 μL) was collected after an overnight fast (14-16 h) by retro-orbital puncture into a heparinized capillary tube at two weeks, or by cardiac puncture into EDTA anti-coagulant coated tubes at the time of harvest (10 weeks). Plasma was separated from whole blood immediately by centrifugation of the blood samples at 5000 rpm for 10 min at 4° C., and was then stored at −80° C. Plasma total cholesterol (TC) was measured using an enzymatic colorimetric method kit (Amplex® red cholesterol assay kit, No. A12216, Life Technologies) according to the manufacturer's instructions.
In addition, several peptides were administered orally to mice at a 35 mg/kg dose (unless otherwise noted) in the drinking water for two weeks. The female LDLr-null mice maintained on a high-fat diet were provided with peptide-treated 1% sucrose/PBS or 1% sucrose/PBS alone as the drinking water ad libitum. Cholesterol levels were then determined. The data are shown in FIG. 7 as a scatter plot along with mean±SD. p values were determined by the one-way ANOVA test with a post hoc Tukey-Kramer test.

[4] = system: LDLr-null mice; experiment: evaluation of atherosclerosis: whole aorta lesion area and aortic sinus lesion volume; type: in vivo, mouse; conditions: oral 35 mg/kg in drinking water, 10 weeks, female LDLr-null mice; FIG. 8; 35 mg/kg
From the text: as §1
Evaluation of atherosclerosis: Atherosclerotic lesion severity was assessed in the aortae as previously described in Mullick et al., J. Clin. Invest. 115, 3149-3156, 2005. Briefly, at euthanasia, animals were perfused with PBS, followed by 4% formaldehyde (10% UltraPure EM Grade from Polysciences diluted in PBS, pH 7.2). For en face analysis, the entire mouse aorta was dissected from the proximal ascending aorta to the bifurcation of the iliac artery by using a dissecting microscope. Adventitial fat was removed, and the aorta was opened longitudinally, pinned flat onto black dissecting wax, stained with Sudan IV, and photographed at a fixed magnification. The photographs were digitized, and total aortic areas and lesion areas were calculated by using Adobe Photoshop version CS4, Chromatica V, and NIH Scion Image software (http://rsb.info.nih.gov/nih-image/Default.html). The results were reported as a percentage of the total aortic area that contained lesions.
As a second assessment of atherosclerosis, lesions of the aortic root (heart sinus) were analyzed. Utilizing stereological principles, lesion volume was estimated across a fixed distance of the aortic sinus. […] Lesion areas found only within the valve cusp were measured. […] Lesion volume was calculated from an integration of the measured cross-sectional areas. […]
Other than their in vivo cholesterol reducing activities, several peptides were also examined for ability to inhibit development of atherosclerotic legions in vivo. […] All charts in the figure are shown as a scatter plot along with mean±SD. p values were determined by the one-way ANOVA test with a post hoc Tukey-Kramer test.

Substance	in vivo plasma HDL remodeling, level of lipid-poor pre-beta particles [1]	Pre-beta HDL generated (normalized level) ([2]; pre-beta HDL ELISA)	plasma cholesterol levels (in words) [3]	activity in generating pre-beta HDL (in words) [2]	development of atherosclerotic lesions: whole aorta lesion areas and aortic sinus lesion volumes (in words) [4]
53 (cyclo([dW]L[dW]K[dH]S[dH]K); SMILES CC(C)C[C@@H]1NC(=O)[C@@H](Cc2c[nH]c3ccccc23)NC(=O)[C@H](CCCCN)NC(=O)[C@@H](Cc2c[nH]cn2)NC(=O)[C@H](CO)NC(=O)[C@@H](Cc2c[nH]cn2)NC(=O)[C@H](CCCCN)NC(=O)[C@@H](Cc2c[nH]c3ccccc23)NC1=O) [compound 53]	able to remodel plasma HDL to increase the level of lipid-poor pre-beta particles	0.79			
82 (cyclo(WIW[dW]K[dH]K[dH]); SMILES CC[C@H](C)[C@@H]1NC(=O)[C@H](Cc2c[nH]c3ccccc23)NC(=O)[C@@H](Cc2c[nH]cn2)NC(=O)[C@H](CCCCN)NC(=O)[C@@H](Cc2c[nH]cn2)NC(=O)[C@H](CCCCN)NC(=O)[C@@H](Cc2c[nH]c3ccccc23)NC(=O)[C@H](Cc2c[nH]c3ccccc23)NC1=O) [compound 82]	able to remodel plasma HDL to increase the level of lipid-poor pre-beta particles				
c[(Me)wLwR(Me)eQeR] (cyclo([dNMeW]L[dW]R[dNMeE]Q[dE]R)) [SEQ ID NO:46]			negatively affect	negatively affect	remains very effective as the parent compound; also recorded: similarly effective as the parent compound in preventing the development of atherosclerotic lesions
